Reference: US20060100431A1, “Biologically active compounds” (Amura Therapeutics Limited, priority 2002, published 2006)

Experiments:
Assay type in all cases: biochemical
CPB2.8ΔCTE = target: T1, CPB2.8ΔCTE (Leishmania mexicana, UniProt P36400); assay: Leishmania mexicana cysteine protease B (CPB) peptidase activity assay (Ki); conditions: Ki, inhibitors of Leismania mexicana CPB protease
T1 construct: Wild-type recombinant CPB without the C-terminal extention (i.e. CPB2.8ΔCTE); Dr. Jeremy Mottram (Wellcome Centre for Molecular Parasitology, University of Glasgow)
T1 sequence (P36400 126-343, stated change not applied): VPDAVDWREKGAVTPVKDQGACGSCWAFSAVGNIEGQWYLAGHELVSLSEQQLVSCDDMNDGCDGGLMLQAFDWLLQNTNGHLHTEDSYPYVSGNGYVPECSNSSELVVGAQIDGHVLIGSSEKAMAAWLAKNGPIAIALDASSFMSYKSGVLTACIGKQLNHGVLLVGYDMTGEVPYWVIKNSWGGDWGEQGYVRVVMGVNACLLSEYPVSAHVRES
Procedure, shortened: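 Apparent Ki was derived by regression of activity against inhibitor concentration, assuming pure-competitive reversible binding. Reaction: 0.25 nM CPB lacking the C-terminal extension, pH 5.5 acetate buffer (1 mM EDTA, 200 mM NaCl, 10 mM DTT), 25 °C, followed by continuous substrate fluorescence.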

Wild-type cruzipain = Wild-type cruzipain (Trypanosoma cruzi, UniProt P25779); assay: Trypanosoma cruzi cruzipain peptidase activity assay (Ki); conditions: read-out: Ki, inhibitors of cruzain and cruzipains
Sequence of Wild-type cruzipain (P25779 whole entry): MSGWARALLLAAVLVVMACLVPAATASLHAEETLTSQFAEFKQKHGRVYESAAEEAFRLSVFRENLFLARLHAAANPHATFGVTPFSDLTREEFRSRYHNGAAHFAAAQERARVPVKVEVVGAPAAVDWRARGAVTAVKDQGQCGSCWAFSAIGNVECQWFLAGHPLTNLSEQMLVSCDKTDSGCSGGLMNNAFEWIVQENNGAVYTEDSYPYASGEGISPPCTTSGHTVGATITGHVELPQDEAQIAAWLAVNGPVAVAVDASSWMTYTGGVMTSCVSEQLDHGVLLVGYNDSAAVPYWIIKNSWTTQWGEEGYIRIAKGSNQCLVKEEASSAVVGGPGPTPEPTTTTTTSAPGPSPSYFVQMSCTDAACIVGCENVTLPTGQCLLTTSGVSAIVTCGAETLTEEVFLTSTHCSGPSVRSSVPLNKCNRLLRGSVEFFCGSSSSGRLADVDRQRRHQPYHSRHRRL
Procedure, shortened: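 Native cruzipain from T. cruzi Dm28 epimastigotes, 2.5 nM, in 100 mM sodium phosphate pH 6.75 with 1 mM EDTA and 10 mM L-cysteine, 25 °C, DMSO <1%. Rates taken from continuous fluorogenic substrate read; Ki by regression assuming reversible pure-competitive inhibition.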

human cathepsin B = target: T2, human cathepsin B (Homo sapiens, UniProt P07858); assay: Cathepsin B peptidase activity assay (Ki); conditions: read-out: Ki, inhibitors of cathepsin B
T2 construct: purchased CN Biosciences
Procedure, shortened: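 Buffer: 10 mM bis-tris-propane pH 6.5, 1 mM EDTA, 5 mM 2-mercaptoethanol, 1 mM CaCl2; DMSO <1%. Ki assumed reversible, pure-competitive, from Ki^app=Ki(1+[So]/KM^app) by non-linear regression.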

Bovine cathepsin S = target: T3, Bovine cathepsin S (Bos taurus, UniProt P25326); assay: Cathepsin S peptidase activity assay, bovine enzyme (Ki); conditions: species of cathepsin S not given; read-out: Ki, inhibitors of cathepsin S
T3 construct: purchased CN Biosciences
T3 sequence (P25326 115-331): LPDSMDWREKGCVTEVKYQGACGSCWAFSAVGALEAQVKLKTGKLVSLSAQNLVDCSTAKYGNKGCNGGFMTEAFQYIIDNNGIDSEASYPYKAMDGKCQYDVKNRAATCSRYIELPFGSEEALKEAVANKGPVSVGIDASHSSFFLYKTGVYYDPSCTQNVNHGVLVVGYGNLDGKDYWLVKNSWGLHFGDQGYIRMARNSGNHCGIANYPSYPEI
Procedure, shortened: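 Bovine cathepsin S activity followed by fluorescence increase from substrate conversion to product over time, enzyme added to start the reaction, at 25±1° C. Buffer 10 mM bis-tris-propane pH 6.5 with 1 mM EDTA, 5 mM 2-mercaptoethanol, 1 mM CaCl2; DMSO kept below 1% (vol./vol.).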

Row | Compound | Ki (CPB2.8ΔCTE) [µM] | Ki (Wild-type cruzipain) [µM] | Ki (human cathepsin B) [µM] | Ki (Bovine cathepsin S) [µM]
1 | O=C(N[C@@H](Cc1cc(F)cc(F)c1)C(=O)N1CC[C@@H]2[C@H]1C(=O)CN2C(=O)c1csc2ccccc12)C(c1ccccc1)c1ccccc1 [Example 316, (3aR,6aS)-N-[(1S)-2-[4-(Benzo[b]thiophene-3-carbonyl)-6-oxo-hexahydro-pyrrolo[3,2-b]pyrrole-1-yl]-1-(3,5-difluoro-benzyl)-2-oxo-ethyl]-2,2-diphenyl-acetamide] | < 5 | < 5 | < 5 | < 5
2 | O=C(N[C@@H](Cc1ccc(O)cc1)C(=O)N1CC[C@@H]2[C@H]1C(=O)CN2C(=O)c1csc2ccccc12)C(c1ccccc1)c1ccccc1 [Example 329, (3aR,6aS)-N-[(1S)-2-[4-(Benzo[b]thiophene-3-carbonyl)-6-oxo-hexahydro-pyrrolo[3,2-b]pyrrole-1-yl]-1-(4-hydroxy-benzyl)-2-oxo-ethyl]-2,2-diphenyl-acetamide] | < 5 | < 5 | < 5 | < 5
3 | O=C(N[C@@H](Cc1cccc(F)c1)C(=O)N1CC[C@@H]2[C@H]1C(=O)CN2C(=O)c1csc2ccccc12)C(c1ccccc1)c1ccccc1 [Example 315, (3aR,6aS)-N-[(1S)-2-[4-(Benzo[b]thiophene-3-carbonyl)-6-oxo-hexahydro-pyrrolo[3,2-b]pyrrole-1-yl]-1-(3-fluoro-benzyl)-2-oxo-ethyl]-2,2-diphenyl-acetamide] | < 5 | < 5 | < 5 | < 5
4 | CC(C)C[C@H](NC(=O)c1ccc(Oc2ccccc2)cc1)C(=O)N1CC[C@@H]2[C@H]1C(=O)CN2C(=O)c1ccccc1 [Example 39, (3aR,6aS)-N-[(1S)-1-(4-Benzoyl-6-oxo-hexahydro-pyrrolo[3,2-b]pyrrole-1-carbonyl)-3-methyl-butyl]-4-phenoxy-benzamide] | < 5 | < 5 | < 5 | < 5
5 | Cc1cccc(C[C@H](NC(=O)C(c2ccccc2)c2ccccc2)C(=O)N2CC[C@@H]3[C@H]2C(=O)CN3C(=O)c2csc3ccccc23)c1 [Example 314] | < 5 | < 5 | < 5 | < 5
6 | O=C(N[C@@H](Cc1ccc(O)cc1)C(=O)N1CC[C@@H]2[C@H]1C(=O)CN2C(=O)c1ccccc1)C(c1ccccc1)c1ccccc1 [Example 330, (3aR,6aS)-N-[(1S)-2-(4-Benzoyl-6-oxo-hexahydro-pyrrolo[3,2-b]pyrrol-1-yl)-1-(4-hydroxy-benzyl)-2-oxo-ethyl]-2,2-diphenyl-acetamide] | < 5 | < 5 | < 5 | < 5
7 | O=C(N[C@@H](Cc1ccc(O)cc1)C(=O)N1CC[C@@H]2[C@H]1C(=O)CN2C(=O)c1ccccc1)c1cccc(Br)c1 [Example 298, (3aR,6aS)-N-[(1S)-2-(4-Benzoyl-6-oxo-hexahydro-pyrrolo[3,2-b]pyrrol-1-yl)-1-(4-hydroxy-benzyl)-2-oxo-ethyl]-3-bromo-benzamide] | – | < 5 | < 5 | < 5
8 | O=C(N[C@@H](Cc1ccc(O)cc1)C(=O)N1CC[C@@H]2[C@H]1C(=O)CN2C(=O)c1csc2ccccc12)c1cccc(Br)c1 [Example 323, (3aR,6aS)-N-[(1S)-2-[4-(Benzo[b]thiophene-3-carbonyl)-6-oxo-hexahydro-pyrrolo[3,2-b]pyrrole-1-yl]-1-(4-hydroxy-benzyl)-2-oxo-ethyl]-3-bromo-benzamide] | – | < 5 | < 5 | < 5
